Experimental data from patent publication US10899769B2, “Imidazopiperazinone inhibitors of transcription activating proteins” (Board of Regents, The University of Texas System, priority 2018, dated 2021).

Key:
[1] = target: BRD4(49-170) bromodomain (Homo sapiens (Human), UniProt O60885); experiment: BRD4 AlphaScreen Assay; details: binding to biotin-H4(1-21) Ac-K5/8/12/16
Outline: (§1)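 AlphaScreen binding of GST-bromodomain to biotin-H4(1-21) Ac-K5/8/12/16: 5 nM CBP with 20 nM peptide, or 2.5 nM BRD4 with 10 nM peptide, in 50 mM HEPES 7.5, […], 1 mM TCEP, 0.003% Tween-20. Compound preincubated 30 min, then beads 2 h, room temperature. IC50 from variable-slope fit.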

[2] = target: GST-CBP(1081-1197) bromodomain (Homo sapiens (Human), UniProt Q92793); experiment: CBP AlphaScreen Assay; details: binding to biotin-H4(1-21) Ac-K5/8/12/16
Outline: as §1

Sequence of GST-CBP(1081-1197) bromodomain (Q92793 1081-1197): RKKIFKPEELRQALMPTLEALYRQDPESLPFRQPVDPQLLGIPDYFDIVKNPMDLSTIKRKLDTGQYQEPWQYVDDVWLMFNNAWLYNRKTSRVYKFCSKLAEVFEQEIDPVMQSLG

With CC1C(=O)N(C)Cc2c(-c3ccc4c(c3)c(-c3cnn(C)c3)nn4C)nc(C3=CCOCC3)n21 (stereo not shown) [Example 41, 3-(3,6-Dihydro-2H-pyran-4-yl)-5,7-dimethyl-1-(1-methyl-3-(1-methyl-1H-pyrazol-4-yl)-1H-indazol-5-yl)-7,8-dihydroimidazo[1,5-a]pyrazin-6(5H)-one] the IC50 [1] was 1620 nM and the IC50 [2] was 14 nM.

COCCN1CC(c2nc(-c3cccc4nc(-c5cnn(C)c5)c(C(F)F)cc34)c3n2C(C)C(=O)N(C)C3)C1 (stereo not shown) [Example 23, 1-(3-(Difluoromethyl)-2-(1-methyl-1H-pyrazol-4-yl)quinolin-5-yl)-3-(1-(2-methoxyethyl)azetidin-3-yl)-5,7-dimethyl-7,8-dihydroimidazo[1,5-a]pyrazin-6(5H)-one] was tested, and the IC50 [1] was 24600 nM and the IC50 [2] was 94 nM.

For CC1C(=O)N(C)Cc2c(-c3cccc4nc(-c5cnn(C)c5)c(C(F)F)cc34)nc(C3(C)CCOCC3)n21 (single isomer, unassigned) [Example 32b, 1-(3-(Difluoromethyl)-2-(1-methyl-1H-pyrazol-4-yl)quinolin-5-yl)-5,7-dimethyl-3-(4-methyltetrahydro-2H-pyran-4-yl)-7,8-dihydroimidazo[1,5-a]pyrazin-6(5H)-one], the IC50 [1] was 351 nM and the IC50 [2] was 2 nM.

Work on CC1C(=O)N(C)Cc2c(-c3c(F)ccc4cc(C5CCOCC5)ncc34)nc(C3CCOCC3)n21 (single isomer, unassigned) [Example 34a, 1-(7-Fluoro-3-(tetrahydro-2H-pyran-4-yl)isoquinolin-8-yl)-5,7-dimethyl-3-(tetrahydro-2H-pyran-4-yl)-7,8-dihydroimidazo[1,5-a]pyrazin-6(5H)-one] yielded an IC50 [1] of at least 25000 nM and an IC50 [2] of 2460 nM.

Work on CC1C(=O)N(C)Cc2c(-c3ccc4ccncc4c3)nc(C3CC3)n21 (stereo not shown) [Example 53, 3-cyclopropyl-1-(isoquinolin-7-yl)-5,7-dimethyl-7,8-dihydroimidazo[1,5-a] pyrazin-6(5H)-one] yielded an IC50 [1] of 2960 nM and an IC50 [2] of 159 nM.

Molecule CC1C(=O)N(C)Cc2c(-c3cccc4nc(-c5cnn(C)c5)c(C(F)F)cc34)nc(C3CCN(S(C)(=O)=O)CC3)n21 (stereo not shown) [Example 83, 1-(3-(difluoromethyl)-2-(1-methyl-1H-pyrazol-4-yl)quinolin-5-yl)-5,7-dimethyl-3-(1-(methylsulfonyl)piperidin-4-yl)-7,8-dihydroimidazo[1,5-a] pyrazin-6(5H)-one] has an IC50 [1] of 3230 nM and an IC50 [2] of 42 nM.

CC1C(=O)N(C)Cc2c(-c3cccc4nc(-c5cnn(C)c5)c(C(F)(F)F)cc34)nc(C3CCOCC3)n21 (single isomer, unassigned) [Example 26a, 5,7-Dimethyl-1-(2-(1-methyl-1H-pyrazol-4-yl)-3-(trifluoromethyl)quinolin-5-yl)-3-(tetrahydro-2H-pyran-4-yl)-7,8-dihydroimidazo[1,5-a]pyrazin-6(5H)-one] was tested, and the IC50 [1] was 193 nM and the IC50 [2] was 2 nM.

CC1C(=O)N(C)Cc2c(-c3cccc4nc(-c5nsc(=O)[nH]5)c(C(F)F)cc34)nc(C3CC3)n21 (stereo not shown) [Example 46, 3-(5-(3-Cyclopropyl-5,7-dimethyl-6-oxo-5,6,7,8-tetrahydroimidazo[1,5-a]pyrazin-1-yl)-3-(difluoromethyl)quinolin-2-yl)-1,2,4-thiadiazol-5(4H)-one] showed an IC50 [1] of 341 nM and an IC50 [2] of 2 nM.

Molecule COCCN1CCC(c2nc(-c3cccc4nc(-c5cnn(C)c5)c(C(F)F)cc34)c3n2C(C)C(=O)N(C)C3)CC1 (stereo not shown) [Example 82, 1-(3-(difluoromethyl)-2-(1-methyl-1H-pyrazol-4-yl)quinolin-5-yl)-3-(1-(2-methoxyethyl)piperidin-4-yl)-5,7-dimethyl-7,8-dihydroimidazo[1,5-a] pyrazin-6(5H)-one] has an IC50 [1] of 12300 nM and an IC50 [2] of 227 nM.

Work on CC1C(=O)N(C)Cc2c(-c3cccc4cc(C5=CCOCC5)ncc34)nc(C3CC3)n21 (stereo not drawn) [Example 55, 3-cyclopropyl-l-(3-(3,6-dihydro-2H-pyran-4-yl)isoquinolin-8-yl)-5,7-dimethyl-7,8-dihydroimidazo[1,5-a] pyrazin-6(5H)-one] yielded an IC50 [1] of 392 nM and an IC50 [2] of 2 nM.

In the case of CC1C(=O)N(C)Cc2c(-c3cc4c(-c5cnn(C)c5)nn(C)c4cc3F)nc(C3CCOCC3)n21 (stereo not shown) [Example 43, 1-(6-Fluoro-1-methyl-3-(1-methyl-1H-pyrazol-4-yl)-1H-indazol-5-yl)-5,7-dimethyl-3-(tetrahydro-2H-pyran-4-yl)-7,8-dihydroimidazo[1,5-a]pyrazin-6(5H)-one 2,2,2-trifluoroacetate], the IC50 [1] is reported as 1440 nM and the IC50 [2] is reported as 6 nM.
